Experimental findings from patent publication US10190166B2, “Methods for identifying dendritic cell subsets, for determining if a patient is developing a regulatory or an effector immune response, and for determining response to immunotherapy” (STALLERGENES, priority 2011, dated 2019) are described below.

Values joined by “and” are separate entries in the source; they are usually repeats but may differ in a detail not shown here. Equal entries are not always repeated. Bounds are passed on as bounds.

Test [1] relates to monocyte-derived DCs. Nature of the test: Cell surface phenotype of treated DCs by flow cytometry. Format: cell-based, human. The conditions noted are these: treatment during the differentiation step. The procedure:
For immuno-fluorescence staining, cells were harvested, washed in PBS and incubated for 20 min at 4° C. with the following mAbs: FITC anti-CD14, FITC anti-CD80, PE anti-CD86, PC5 anti-CD83 (Beckman coulter), FITC anti-ILT2, PE anti-ILT4, PC5 anti-ILT3 (R&D systems) or PE-CD11c (Miltenyi Biotec, Paris, France). Cells were stained with corresponding isotype-matched control mAbs and analyzed by flow cytometry.
(In general: In flow cytometry, cells or beads pass a laser one at a time.)

The subject of test [2] is monocyte-derived DCs. Nature of the test: Anti-inflammatory effect: treated DCs stimulated with LPS 24 h (costimulatory molecules, cytokine secretion). Format: cell-based, human.
The subject of test [3] is monocyte-derived DCs. Nature of the test: Western blot analysis of marker proteins in treated DCs. Format: cell-based, human. The procedure: NuPAGE-Western blotting was carried out according to standard procedures (NuPAGE technical guide, Invitrogen). […] H00004599-[…], 1/500) from Abnova (Taipei, Taiwan), anti-CD71 (Cat. no. […] The rabbit polyclonal serum raised against GILZ was previously described (see […], et al. […] Peroxidase-conjugated goat anti-mouse and anti-rabbit secondary antibodies were both obtained from Jackson Immunoresearch Laboratories (Sufflok, England), and the chemiluminescence detection kit was from Pierce (SuperSignal West Pico Chemiluminescent Substrate, Fisher Scientific, Illkirch, France). Western blot signals were acquired with a CCD camera (Fusion FX7, Vilber-Lourmat, Marnes La Vallée, France) and band volume was quantified using the Bio-1D software (Vilber-Lourmat). β-actin or GAPDH were used as loading controls.
(In general: In western blotting, separated proteins are transferred to a membrane and probed.)

Test [4] deals with monocyte-derived DCs. Nature of the test: Quantitative real-time PCR of marker genes in treated DCs. For orientation: Quantitative PCR measures a nucleic acid by following its amplification.
Procedure: Total RNA was extracted from treated DCs or PBMCs using RNeasy mini kits (Qiagen, Courtaboeuf, France) and cDNAs were obtained using TaqMan reverse transcription reagents (Applied Biosystems, Les Ulis, France) as per the manufacturer's instructions. Messenger RNA expression was evaluated by quantitative PCR on a 7900HT real-time PCR system (Applied Biosystems) with predesigned Taqman gene expression assays and reagents, according to the manufacturer's instructions. Expression of the following genes was assessed in DCs or PBMCs: GILZ (Hs00608272_m1), IDO (Hs00158032_m1), RALDH-1 (Hs00167445_m1), RALDH-2 (Hs00180254_m1), ANXA1 (Hs00167549_m1), CLIC2 (Hs01574555_m)1, FKBP5 (Hs01561001_m1), F13A (Hs00173388_m1), GPX1 (Hs00829989_gH), IMDH2 (Hs00168418_m1), OSF1 (Hs00273458_m1), TPP1 (Hs00166099_m1), C1QA (Hs00381122_m1), C1QB (Hs00608019_m1), C1QC (Hs00757779_m1), CATB (Hs00947433_m1), CATC (Hs00175188_m1), STAB1 (Hs01109068_m1), MRC1 (Hs00267207_m1), CD71 (Hs00951083_m1), FSCN1 (Hs00979631_g1), IRF4 (Hs01056533_m1), MX1 (Hs00895608_m1), NMES1 (Hs00260902_m1), TRAF1 (Hs01090170_m1). Expression of the following genes was assessed in T cells: IFNg (Hs00989291_m1), IL-4 (Hs00174122_m1), IL-10 (Hs00961622_m1) and IL-17A (Hs00174383_m1). Data were interpreted for each target gene in comparison with endogenous β-actin (Hs99999903_m1) or GAPDH (Hs03929097_g1) as controls. The relative amount of target genes in each sample was calculated in comparison with the calibrator sample using the ΔΔCt The magnitude of gene induction was calculated using the formula 2^−ΔΔCt=2^(−ΔCt for stimulated cells−ΔCt for unstimulated cells).
Test [5] deals with monocyte-derived DCs. Nature of the test: Label free MS analysis of DC subtypes. Format: cell-based, human. The procedure: Label-free MS of digested total protein lysates (solubilized in buffer A as described above), was conducted to compare proteomes of control, effector and regulatory DC subsets. Briefly, a common ultrafiltration device was used for detergent removal (CHAPS) to enable subsequent proteome analysis (Filter-aided sample preparation, FASP). 100 μg of proteins were mixed with urea-containing buffers in the filter unit (Amicon Ultra-0.5 ml, Ultracel-10 kDa Membrane, Millipore, Molsheim, France), reduced with 20 mM DTT, alkylated with 50 mM iodoacetamide, digested with Lys-C (37° C., 5 h, ratio 1/50, Sigma-Aldrich) and then with trypsin (37° C., overnight, ratio 1/50). After digestion, peptides were desalted using RPC18 Dynal magnetic beads (Invitrogen), acidified with FA and 1.5 to 2 μg of tryptic peptides were analyzed by nanoLC-MS or nanoLC-MS/MS.
In MS mode, full scan MS spectra were acquired from m/z 280 to 1500 (1 MS spectrum of 0.8 s) during 270 min. Ion intensities recorded in LC-MS data were analyzed using Progenesis LC-MS v3.1 software (Non Linear Dynamics) to provide reliable measurements of peptide (feature) abundance across samples. Internal calibration was performed by enabling the lock mass option in MS mode (minimum intensity>200 and mass±0.015 Da). […] Targeted nanoLC-MS/MS were accomplished by means of an inclusion mass list in the MS instrument method. […] Identification parameters were identical to those described for 2D-DIGE analysis. […] For accurate mass measurements, the lock mass option was enabled in MS and MS/MS mode.

[6] abbreviates: tolerogenic DC models (model B).
[7] abbreviates: moDCs treated 24 h, one value per peptide.

For `C=C1/C(=C\C=C2/CCC[C@]3(C)[C@@H]([C@H](C)CCCC(C)(C)O)CC[C@@H]23)C[C@@H](O)C[C@@H]1O` [VitD3, 1,25 dihydroxy-vitamin D3], in the test with monocyte-derived DCs [1], the CD14 expression entry is given as “CD14^med” and the ILT3 expression entry was “ILT3^high”. Also, the “IL-6, IL-8 and TNF-α secretion after LPS stimulation” value with monocyte-derived DCs [2] was “left uninhibited”.

Consider “TGFb: cytokine TGFb added during the DC differentiation step (20 ng/ml)”, for which the “ANXA1, CATC and GILZ proteins” value in the test on monocyte-derived DCs [3] (setting [6]) is on record as “upregulated”. In the test with monocyte-derived DCs [1], the CD14 expression result was “CD14^neg” and the ILT2 expression result is listed as “ILT2^med”.

As for `C[C@@H]1C[C@H]2[C@@H]3CCC4=CC(=O)C=C[C@]4(C)[C@@]3(F)[C@@H](O)C[C@]2(C)[C@@]1(O)C(=O)CO` [DEX, dexamethasone], the “C1QA, C1QB and STAB1 gene expression increase” value in the test with monocyte-derived DCs [4] (DEX-DCs compared with Ctrl-DCs) is not above 12 fold. Moreover, the “FKBP5 and F13A gene expression increase” value in the test with monocyte-derived DCs [4] (DEX-DCs relative to Ctrl-DCs) is not above 15 fold. In the test on monocyte-derived DCs [3] (DEX-DCs compared with Ctrl-DCs), this molecule came in with an ANXA1 protein level of 1.4 fold and an FKBP5 protein induction of 2.6 fold. In the test on monocyte-derived DCs [3] (regulatory DEX-DCs), this molecule yielded a C1Q protein level of 12 fold, a CATC protein level of 1.5 fold, an MRC1 protein level of 1.4 fold and an STAB1 protein level of 2.2 fold. In addition, the “abundance of the m/z 865.70 molecular ion” value in the test with monocyte-derived DCs [5] (moDCs treated 24 h) is 16300. Further, in the test with monocyte-derived DCs [5] (setting [7]), the “Annexin A5 (ANXA5) average normalized abundance” value is 16940 and 11135; the “Annexin A6 (ANXA6) average normalized abundance” value is 3594 and 2084; the “Chloride intracellular channel protein 2 (CLIC2) average normalized abundance” value is 3857 and 4306; the “Complement C1q subcomponent subunit C (C1QC) average normalized abundance” value was 4308 and 4812 and 2406 and 2725. In the test on monocyte-derived DCs [5] (setting [7]), the “Cystatin-C (CYTC) average normalized abundance” value is 7747 and 6610 and 5925; the “Dipeptidyl peptidase 1 (CATC) average normalized abundance” value is 9396 and 14732 and 15459; the “Gelsolin precursor (GELS) average normalized abundance” value is 5372 and 6735; the “Integrin alpha-M (ITAM) average normalized abundance” value amounted to 3832. For the same molecule, in the test on monocyte-derived DCs [5] (setting [7]), the “Interferon-induced GTP-binding protein Mx1 (MX1) average normalized abundance” value worked out at 1192; the “Neuroblast differentiation-associated protein AHNAK (AHNK) average normalized abundance” value was 2629 and 3047; the “Normal mucosa of esophagus-specific gene 1 protein (NMES1) average normalized abundance” value is 2947 and 2380; the “Peptidyl-prolyl cis-trans isomerase A (PPIA) average normalized abundance” value is 18929 and 14751. For the same molecule, in the test with monocyte-derived DCs [5] (setting [7]), the “Peptidyl-prolyl cis-trans isomerase FKBP5 average normalized abundance” value was 3640 and 5224 and 4046; the “Pleckstrin (PLEK) average normalized abundance” value is 5583 and 4404; the “Proteasome subunit alpha type-7 (PSA7) average normalized abundance” value is 3617 and 2212; the “Sequestosome-1 (SQSTM) average normalized abundance” value is 1340 and 2411. Also, in the test on monocyte-derived DCs [5] (setting [7]), the “TNF receptor-associated factor 1 (TRAF1) average normalized abundance” value is 1732 and 2223; the “Transferrin receptor protein 1 (TFR1) average normalized abundance” value was 706 and 1195; the “WD repeat-containing protein 1 (WDR1) average normalized abundance” value is 2581 and 2605. The “C1QC specific peptides increase” value in the test on monocyte-derived DCs [5] (tolerogenic DEX-DCs) is listed as not above 5 fold.

B1: IL-10: cytokine IL-10 added during the DC differentiation step (10 ng/ml) (protein, UniProt P22301 19-178, looked up)
Interleukin-10: SPGQGTQSENSCTHFPGNLPNMLRDLRDAFSRVKTFFQMKDQLDNLLLKESLLEDFKGYLGCQALSEMIQFYLEEVMPQAENQDPDIKAHVNSLGENLKTLRLRLRRCHRFLPCENKSKAVEQVKNAFNKLQEKGIYKAMSEFDIFINYIEAYMTMKIRN
With B1, the CATC gene induction result in the test with monocyte-derived DCs [4] (setting [6]) is reported as “detected”. Besides, the “F13A, MRC1 and STAB1 proteins” value in the test on monocyte-derived DCs [3] (tolerogenic DC models (model B), DEX 24 h or differentiation) is listed as “upregulated”. Besides, in the test with monocyte-derived DCs [1], the CD14 expression result was “CD14^high” and the ILT4 expression result was “ILT4high”.
